Measurements from PMC6027465, “Benzamide-4-Sulfonamides Are Effective Human Carbonic Anhydrase I, II, VII, and IX Inhibitors” (Metabolites, 2018).

How the values were obtained:
hCA II = molecular target: T1, hCA II (Homo sapiens, UniProt P00918); assay type: biochemical
T1 construct: gene CA2; recombinant

hCA I = molecular target: T2, hCA I (Homo sapiens, UniProt P00915); assay type: biochemical
T2 construct: gene CA1; recombinant

VchCAβ = molecular target: T3, VchCAβ (Vibrio cholerae, UniProt A0A086SLX8); assay type: biochemical; settings: read-out: VchCAβ; CO2 […], […] TRIS pH […] Na2SO4, […] °C, […] min preincubation
T3 construct: gene can

MgCA = molecular target: T4, MgCA (Malassezia globosa, UniProt A8Q1N3); test: biochemical
T4 construct: gene MGL_1814
T4 sequence (A8Q1N3 1-241): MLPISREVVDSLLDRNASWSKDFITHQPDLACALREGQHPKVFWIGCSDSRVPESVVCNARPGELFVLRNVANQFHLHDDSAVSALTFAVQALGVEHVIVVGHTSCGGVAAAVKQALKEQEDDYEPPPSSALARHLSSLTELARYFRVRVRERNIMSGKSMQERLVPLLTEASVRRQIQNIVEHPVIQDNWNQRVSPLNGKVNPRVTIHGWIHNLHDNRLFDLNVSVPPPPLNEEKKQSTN

hCA VII = molecular target: T5, hCA VII (Homo sapiens, UniProt P43166); assay type: biochemical
T5 construct: gene CA7; recombinant

VchCAγ = molecular target: T6, VchCAγ; assay type: biochemical, Vibrio cholerae; settings: CO2 […], […] TRIS pH […] Na2SO4, […] °C, […] min preincubation
T6 construct: gene VchCAgamma

T2 sequence (P00915 2-261): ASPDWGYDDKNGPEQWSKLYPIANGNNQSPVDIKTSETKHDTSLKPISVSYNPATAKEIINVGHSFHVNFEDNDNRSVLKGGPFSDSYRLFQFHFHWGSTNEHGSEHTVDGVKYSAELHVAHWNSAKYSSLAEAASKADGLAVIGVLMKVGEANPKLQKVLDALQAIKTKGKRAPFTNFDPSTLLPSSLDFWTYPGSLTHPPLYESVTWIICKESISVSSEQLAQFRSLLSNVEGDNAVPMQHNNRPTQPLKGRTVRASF
T5 sequence (P43166 whole entry): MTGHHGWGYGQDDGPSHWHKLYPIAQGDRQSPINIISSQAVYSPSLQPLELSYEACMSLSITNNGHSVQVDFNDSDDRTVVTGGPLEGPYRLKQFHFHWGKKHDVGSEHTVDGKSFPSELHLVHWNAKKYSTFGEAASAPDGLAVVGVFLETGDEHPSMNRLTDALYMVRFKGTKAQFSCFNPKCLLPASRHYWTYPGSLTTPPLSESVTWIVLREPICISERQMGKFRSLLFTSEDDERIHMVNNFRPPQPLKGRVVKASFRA
T3 sequence (A0A086SLX8 1-222): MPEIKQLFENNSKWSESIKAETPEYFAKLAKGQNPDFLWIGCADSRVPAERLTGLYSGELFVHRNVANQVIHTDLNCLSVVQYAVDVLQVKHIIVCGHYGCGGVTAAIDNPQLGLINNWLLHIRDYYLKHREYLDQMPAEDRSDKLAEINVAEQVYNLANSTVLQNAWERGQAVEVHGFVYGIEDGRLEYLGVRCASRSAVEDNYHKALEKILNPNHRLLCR

COC(=O)C(NC(=O)c1ccc(S(N)(=O)=O)cc1)C(C)C (racemic) [3f, Methyl (4-Sulfamoylbenzoyl)-DL-Valinate]
Ki (hCA II): 4.5 nM | Ki (hCA I): 57.8 nM | Ki (VchCAβ): 8170 nM | Ki (MgCA): 5500 nM | Ki (hCA VII): 3.7 nM | Ki (VchCAγ): 4460 nM

COC(=O)C(C)NC(=O)c1ccc(S(N)(=O)=O)cc1 (racemic) [3j, Methyl (4-Sulfamoylbenzoyl)-DL-Alaninate]
Ki (hCA II): 6.1 nM | Ki (hCA I): 85.3 nM | Ki (VchCAβ): 412 nM | Ki (MgCA): 87.3 nM | Ki (hCA VII): 3.7 nM | Ki (VchCAγ): 271 nM

CCNC(=O)c1ccc(S(N)(=O)=O)cc1 [3a, N-Ethyl-4-Sulfamoylbenzamide]
Ki (hCA II): 5.3 nM | Ki (hCA I): 334 nM | Ki (VchCAβ): 7080 nM | Ki (MgCA): 7670 nM | Ki (hCA VII): 26.7 nM | Ki (VchCAγ): 929 nM

CCCNC(=O)c1ccc(S(N)(=O)=O)cc1 [3b, N-Propyl-4-Sulfamoylbenzamide]
Ki (hCA II): 3.5 nM | Ki (hCA I): 8.2 nM | Ki (VchCAβ): 7680 nM | Ki (MgCA): 3920 nM | Ki (hCA VII): 0.4 nM | Ki (VchCAγ): 636 nM

C#CCNC(=O)c1ccc(S(N)(=O)=O)cc1 [3c, N-(Prop-2-Yn-1-Yl)-4-Sulfamoylbenzamide]
Ki (VchCAβ): 741 nM | Ki (MgCA): 5780 nM | Ki (hCA VII): 0.6 nM | Ki (VchCAγ): 383 nM

NS(=O)(=O)c1ccc(C(=O)N2CCOCC2)cc1 [3d, 4-(Morpholine-4-Carbonyl)Benzenesulfonamide]
Ki (hCA II): 6.2 nM | Ki (hCA I): 8.7 nM | Ki (VchCAβ): 8590 nM | Ki (MgCA): 5880 nM | Ki (hCA VII): 0.8 nM | Ki (VchCAγ): 693 nM

NS(=O)(=O)c1ccc(C(=O)N2CCCCC2)cc1 [3e, 4-(Piperidine-1-Carbonyl)Benzenesulfonamide]
Ki (VchCAβ): 749 nM | Ki (MgCA): 3980 nM | Ki (VchCAγ): 453 nM

COC(=O)CC[C@@H](NC(=O)c1ccc(S(N)(=O)=O)cc1)C(=O)OC [3g, Dimethyl (4-Sulfamoylbenzoyl)-D-Glutamate]
Ki (hCA II): 5.2 nM | Ki (hCA I): 8.2 nM | Ki (VchCAβ): 862 nM | Ki (MgCA): 632 nM | Ki (hCA VII): 0.6 nM | Ki (VchCAγ): 503 nM

COC(=O)[C@H](CC(C)C)NC(=O)c1ccc(S(N)(=O)=O)cc1 [3h, Methyl (4-Sulfamoylbenzoyl)-L-Leucinate]
Ki (hCA II): 3.7 nM | Ki (hCA I): 5.6 nM | Ki (VchCAβ): 719 nM | Ki (MgCA): 763 nM | Ki (hCA VII): 0.4 nM | Ki (VchCAγ): 891 nM

COC(=O)C[C@@H](NC(=O)c1ccc(S(N)(=O)=O)cc1)C(=O)OC [3i, Dimethyl (4-Sulfamoylbenzoyl)-D-Aspartate]
Ki (hCA II): 6.1 nM | Ki (hCA I): 75.7 nM | Ki (VchCAβ): 910 nM | Ki (MgCA): 6950 nM | Ki (hCA VII): 0.7 nM | Ki (VchCAγ): 744 nM

CCOC(=O)CCCNC(=O)c1ccc(S(N)(=O)=O)cc1 [3k, Ethyl 4-(4-Sulfamoylbenzamido)Butanoate]
Ki (hCA II): 4 nM | Ki (hCA I): 5.3 nM | Ki (VchCAβ): 953 nM | Ki (MgCA): 6690 nM | Ki (hCA VII): 0.4 nM | Ki (VchCAγ): 756 nM

COC(=O)[C@H](Cc1ccccc1)NC(=O)c1ccc(S(N)(=O)=O)cc1 [3l, Methyl (4-Sulfamoylbenzoyl)-L-Phenylalaninate]
Ki (hCA II): 3.3 nM | Ki (hCA I): 5.6 nM | Ki (VchCAβ): 663 nM | Ki (MgCA): 517 nM | Ki (hCA VII): 0.5 nM | Ki (VchCAγ): 409 nM
